From ChEMBL document CHEMBL1201862, “PubChem BioAssay data set” (2004)
Values belong to the compound of their own block, whether it stands above or below them. Calls of active or inactive are those of the source.

Tests used:
[1] = target: Glucose-6-phosphate 1-dehydrogenase (Homo sapiens, UniProt P11413); test: inhibition of Homo sapiens G6PD, dose series – biochemical, fluorescence, selectivity assay for P. falciparum G6PD inhibitor project, dose response (AID 504792); type: functional
Aurora kinase B = Aurora kinase B (Homo sapiens, UniProt Q96GD4); type: functional
Aurora kinase A = target: T1, Aurora kinase A (Homo sapiens, UniProt O14965); type: functional;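 note: value from the Navigating the Kinome kinase panel profiling, panel entry STK6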
T1 sequence (O14965 whole entry): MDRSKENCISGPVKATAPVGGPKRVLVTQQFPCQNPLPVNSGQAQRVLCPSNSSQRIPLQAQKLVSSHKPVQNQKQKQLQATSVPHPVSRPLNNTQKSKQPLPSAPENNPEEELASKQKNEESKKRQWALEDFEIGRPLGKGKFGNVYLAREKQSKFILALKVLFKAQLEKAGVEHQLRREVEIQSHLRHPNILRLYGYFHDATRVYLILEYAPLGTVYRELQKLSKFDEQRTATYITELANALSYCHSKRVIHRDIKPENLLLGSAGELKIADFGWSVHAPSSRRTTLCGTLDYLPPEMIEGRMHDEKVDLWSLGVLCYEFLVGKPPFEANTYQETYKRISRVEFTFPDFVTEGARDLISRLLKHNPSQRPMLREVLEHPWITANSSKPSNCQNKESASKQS

[2] = target: Vascular endothelial growth factor receptor 2 (Homo sapiens, UniProt P35968); type: functional
[3] = target: Dual specificity tyrosine-phosphorylation-regulated kinase 1A (Rattus norvegicus, UniProt Q63470); type: biochemical, Homo sapiens
Leucine aminopeptidase = target: T2, Leucine aminopeptidase (Plasmodium falciparum 3D7, UniProt Q8IL11); test: P. falciparum M17LAP inhibitors, primary screen, biochemical, fluorogenic H-Leu-NHMec substrate, 1536-well (AID 1619); type: functional
T2 sequence (Q8IL11 whole entry): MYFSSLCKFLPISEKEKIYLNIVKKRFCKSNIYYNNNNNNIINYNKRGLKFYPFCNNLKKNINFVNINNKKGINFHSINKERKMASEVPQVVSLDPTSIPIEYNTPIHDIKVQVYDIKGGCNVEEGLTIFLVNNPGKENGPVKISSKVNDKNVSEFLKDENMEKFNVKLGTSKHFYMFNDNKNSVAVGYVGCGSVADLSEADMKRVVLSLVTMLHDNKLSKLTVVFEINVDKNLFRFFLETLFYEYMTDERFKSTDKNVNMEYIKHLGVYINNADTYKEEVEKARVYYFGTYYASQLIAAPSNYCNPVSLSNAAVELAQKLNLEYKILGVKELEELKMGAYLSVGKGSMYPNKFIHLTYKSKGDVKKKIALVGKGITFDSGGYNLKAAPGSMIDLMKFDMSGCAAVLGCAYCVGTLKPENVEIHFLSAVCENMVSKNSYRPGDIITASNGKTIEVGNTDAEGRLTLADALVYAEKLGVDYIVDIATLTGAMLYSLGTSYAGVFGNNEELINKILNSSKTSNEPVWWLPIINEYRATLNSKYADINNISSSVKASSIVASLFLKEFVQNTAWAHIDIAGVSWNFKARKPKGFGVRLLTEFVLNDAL

Phospholipase A2 = Phospholipase A2 (Homo sapiens, UniProt P04054); type: functional;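 note: confirmatory dose-response counterscreen on phospholipase A2, testing hits that came from an ultra-high-throughput screen for ATG4B inhibitors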
Cysteine protease ATG4B = target: T3, Cysteine protease ATG4B (Homo sapiens, UniProt Q9Y4P1); type: functional;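 note: Fluorescence-based dose-response confirmation assay measuring inhibition of ATG4B activity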
T3 sequence (Q9Y4P1 whole entry): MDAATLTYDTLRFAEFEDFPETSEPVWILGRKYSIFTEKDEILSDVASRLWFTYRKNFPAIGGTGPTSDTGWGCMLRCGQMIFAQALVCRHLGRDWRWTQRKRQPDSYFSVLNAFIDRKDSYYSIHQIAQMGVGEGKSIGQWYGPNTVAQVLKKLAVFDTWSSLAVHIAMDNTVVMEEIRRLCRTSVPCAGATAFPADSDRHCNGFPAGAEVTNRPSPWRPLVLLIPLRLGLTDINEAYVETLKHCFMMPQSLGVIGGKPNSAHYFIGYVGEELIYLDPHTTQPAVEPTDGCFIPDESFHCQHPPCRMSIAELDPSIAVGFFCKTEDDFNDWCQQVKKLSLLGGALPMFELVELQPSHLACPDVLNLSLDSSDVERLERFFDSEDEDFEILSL

[4] = target: T4, High affinity choline transporter 1 (Homo sapiens, UniProt Q9GZV3); test: human choline transporter blockers, potency – cell-based, 5-point CRC, membrane potential dye, dose response (AID 504840); type: functional
T4 sequence (Q9GZV3 whole entry): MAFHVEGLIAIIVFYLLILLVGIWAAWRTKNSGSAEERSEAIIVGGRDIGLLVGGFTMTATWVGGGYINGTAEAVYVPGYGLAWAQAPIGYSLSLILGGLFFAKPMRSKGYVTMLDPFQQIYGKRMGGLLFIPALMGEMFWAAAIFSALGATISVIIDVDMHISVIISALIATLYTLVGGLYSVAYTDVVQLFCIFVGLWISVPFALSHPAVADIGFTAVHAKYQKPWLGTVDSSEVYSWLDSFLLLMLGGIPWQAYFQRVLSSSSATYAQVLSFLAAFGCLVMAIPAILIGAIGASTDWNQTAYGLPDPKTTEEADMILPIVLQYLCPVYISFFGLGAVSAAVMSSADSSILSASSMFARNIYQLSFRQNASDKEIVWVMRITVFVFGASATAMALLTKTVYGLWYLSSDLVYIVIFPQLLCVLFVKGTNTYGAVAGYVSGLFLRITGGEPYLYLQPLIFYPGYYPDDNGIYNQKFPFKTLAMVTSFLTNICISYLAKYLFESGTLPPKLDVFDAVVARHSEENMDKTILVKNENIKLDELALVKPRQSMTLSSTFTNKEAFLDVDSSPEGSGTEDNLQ

[5] = intracellular Trypanosoma cruzi inhibitors in host cells – cell-based, plate reader, cherry-pick samples, set 3, dose response (AID 651818); type: functional;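 note: compounds incubated with infected cells for about four days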
HeLa = test: ATP-based viability loss in HeLa cells – cell-based, CellTiter-Glo luminescence, cherry-pick samples, cytotoxicity control for MITF activator project, dose response (AID 540259); type: functional; settings: Homo sapiens
[6] = NIH-3T3 fibroblast cytotoxicity, dose response, cytotoxicity control, cell-based, fluorescence, Alamar Blue, secondary assay (AID 2327); type: functional;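 note: NIH-3T3 mouse fibroblasts cultured with fluconazole at 8 µg/mL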
[7] = fluconazole-exposed Candida albicans growth modulators – fluorescence, retest, confirmation (AID 2467); type: functional, cell-based
HEK293 = test: EBV LMP1 TES2 canonical NF-kB signalling blockers – cell-based, HEK293, luciferase, cherry-pick, dose response (AID 588343); type: functional; settings: Homo sapiens
INS1 = test: INS-1E survival protection against cytokine death – cell-based, luminescence, retest, dose response (AID 449756); type: functional; settings: Rattus norvegicus;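 note: cell death triggered by IL-1 beta plus TNF-alpha plus IFN-gamma mixture; protective hits raise ATP signal compared with cytokine alone wells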
[8] = viability of HCT116 lacking mutant beta-catenin – cell-based, human colon tumor, dose response (AID 1045); type: functional;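 note: HCT116 colon tumor cells with beta catenin knocked out; cells exposed to compound for 60 hours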
[9] = target: T5, Calpain-2 catalytic subunit (Sus scrofa, UniProt P43367); test: m-calpain protease blockers, concentration series – biochemical, fluorogenic peptide substrate, dose response (AID 1420); type: functional
T5 sequence (P43367 whole entry): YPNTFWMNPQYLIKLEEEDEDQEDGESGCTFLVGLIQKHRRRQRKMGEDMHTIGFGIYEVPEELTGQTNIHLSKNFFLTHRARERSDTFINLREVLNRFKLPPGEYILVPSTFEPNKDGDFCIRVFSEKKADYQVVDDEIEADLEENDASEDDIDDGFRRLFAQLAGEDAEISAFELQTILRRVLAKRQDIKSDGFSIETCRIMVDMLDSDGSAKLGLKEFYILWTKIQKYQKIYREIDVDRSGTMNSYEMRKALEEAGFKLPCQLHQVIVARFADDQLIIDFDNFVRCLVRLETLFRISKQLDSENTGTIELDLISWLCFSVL

SUMO-activating enzyme [10] = target: T6, SUMO-activating enzyme (Homo sapiens, UniProt Q9UBT2); test: blockers of UBC9-mediated SUMO conjugation – biochemical, AlphaScreen, SUMOylation inhibitor project, confirmation (AID 2018); type: functional
[11] = viability of PTEN-deleted HCT116 cells – cell-based, HCT116 PTEN knockout, dose response (AID 1047); type: functional;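 note: HCT116 colon tumor cells with PTEN knocked out; cells exposed to compound for 60 hours before readout; potency for loss of cell viability measured by luminescence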
Cytochrome P450 2C9 = Cytochrome P450 2C9 (Homo sapiens, UniProt P11712)
SUMO-activating enzyme [12] = target: T6, SUMO-activating enzyme; test: blockers of SAE1/SAE2–UBC9 SUMO transfer – biochemical, HTRF, uHTS, primary screen (AID 2006); type: protein-complex assay
Cytochrome P450 2C19 = Cytochrome P450 2C19 (Homo sapiens, UniProt P33261); test: Cytochrome panel assay with activity outcomes. Panel member name: p450-cyp2c19 Compounds with AC50 equal or less than 10 uM are considered active; type: functional; settings: read-out: AC50
H9c2 = test: cells; type: functional, cell-based; settings: Rattus norvegicus, H9c2, Myocardium;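 note: confirmatory concentration-response retest of ultra-high-throughput screening hits for modulation of myocardial damage; cell death induced by hydrogen peroxide oxidative stress; compound pretreatment for 60 min then peroxide exposure for 2 h; potency is for protecting the cells against peroxide damage rather than for killing them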
[13] = Trypanosoma cruzi growth suppression in host cells – NIH3T3 host cells, beta-gal luminescence, confirmation (AID 2044); type: functional, cell-based;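 note: intracellular parasites grown in NIH/3T3 mouse fibroblasts as host cells; luminescent beta-galactosidase reporter signal from transgenic T. cruzi replicating inside host cells; inhibitors lower the luminescence signal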
[14] = NIH3T3 cell viability loss – ATP luminescence, mouse fibroblasts, counter-screen, dose response (AID 2010); type: functional, cell-based;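 note: cells exposed to compound for about 90 hours before reading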

Sequence of Glucose-6-phosphate 1-dehydrogenase (P11413 whole entry): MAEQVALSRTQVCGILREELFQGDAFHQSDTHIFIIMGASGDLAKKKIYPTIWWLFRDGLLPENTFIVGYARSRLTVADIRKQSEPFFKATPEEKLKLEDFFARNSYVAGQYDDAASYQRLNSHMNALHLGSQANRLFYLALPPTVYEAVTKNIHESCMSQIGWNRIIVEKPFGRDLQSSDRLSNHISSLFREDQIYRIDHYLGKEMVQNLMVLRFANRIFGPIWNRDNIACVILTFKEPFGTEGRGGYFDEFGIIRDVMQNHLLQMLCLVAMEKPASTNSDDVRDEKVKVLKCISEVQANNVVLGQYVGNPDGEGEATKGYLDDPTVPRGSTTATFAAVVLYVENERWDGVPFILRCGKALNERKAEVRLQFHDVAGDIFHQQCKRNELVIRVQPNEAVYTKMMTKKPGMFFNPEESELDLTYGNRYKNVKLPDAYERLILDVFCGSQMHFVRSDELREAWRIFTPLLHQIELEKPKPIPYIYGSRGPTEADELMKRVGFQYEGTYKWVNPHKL
Sequence of Aurora kinase B (Q96GD4 whole entry): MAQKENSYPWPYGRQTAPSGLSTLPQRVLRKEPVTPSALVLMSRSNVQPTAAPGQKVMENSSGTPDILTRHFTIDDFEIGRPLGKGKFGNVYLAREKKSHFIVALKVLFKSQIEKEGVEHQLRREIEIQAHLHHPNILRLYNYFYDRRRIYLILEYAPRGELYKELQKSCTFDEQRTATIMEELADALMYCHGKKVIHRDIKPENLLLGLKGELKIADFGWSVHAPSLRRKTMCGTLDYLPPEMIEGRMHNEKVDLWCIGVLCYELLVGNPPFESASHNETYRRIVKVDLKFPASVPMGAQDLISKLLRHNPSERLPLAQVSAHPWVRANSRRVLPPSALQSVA
Sequence of Vascular endothelial growth factor receptor 2 (P35968 whole entry): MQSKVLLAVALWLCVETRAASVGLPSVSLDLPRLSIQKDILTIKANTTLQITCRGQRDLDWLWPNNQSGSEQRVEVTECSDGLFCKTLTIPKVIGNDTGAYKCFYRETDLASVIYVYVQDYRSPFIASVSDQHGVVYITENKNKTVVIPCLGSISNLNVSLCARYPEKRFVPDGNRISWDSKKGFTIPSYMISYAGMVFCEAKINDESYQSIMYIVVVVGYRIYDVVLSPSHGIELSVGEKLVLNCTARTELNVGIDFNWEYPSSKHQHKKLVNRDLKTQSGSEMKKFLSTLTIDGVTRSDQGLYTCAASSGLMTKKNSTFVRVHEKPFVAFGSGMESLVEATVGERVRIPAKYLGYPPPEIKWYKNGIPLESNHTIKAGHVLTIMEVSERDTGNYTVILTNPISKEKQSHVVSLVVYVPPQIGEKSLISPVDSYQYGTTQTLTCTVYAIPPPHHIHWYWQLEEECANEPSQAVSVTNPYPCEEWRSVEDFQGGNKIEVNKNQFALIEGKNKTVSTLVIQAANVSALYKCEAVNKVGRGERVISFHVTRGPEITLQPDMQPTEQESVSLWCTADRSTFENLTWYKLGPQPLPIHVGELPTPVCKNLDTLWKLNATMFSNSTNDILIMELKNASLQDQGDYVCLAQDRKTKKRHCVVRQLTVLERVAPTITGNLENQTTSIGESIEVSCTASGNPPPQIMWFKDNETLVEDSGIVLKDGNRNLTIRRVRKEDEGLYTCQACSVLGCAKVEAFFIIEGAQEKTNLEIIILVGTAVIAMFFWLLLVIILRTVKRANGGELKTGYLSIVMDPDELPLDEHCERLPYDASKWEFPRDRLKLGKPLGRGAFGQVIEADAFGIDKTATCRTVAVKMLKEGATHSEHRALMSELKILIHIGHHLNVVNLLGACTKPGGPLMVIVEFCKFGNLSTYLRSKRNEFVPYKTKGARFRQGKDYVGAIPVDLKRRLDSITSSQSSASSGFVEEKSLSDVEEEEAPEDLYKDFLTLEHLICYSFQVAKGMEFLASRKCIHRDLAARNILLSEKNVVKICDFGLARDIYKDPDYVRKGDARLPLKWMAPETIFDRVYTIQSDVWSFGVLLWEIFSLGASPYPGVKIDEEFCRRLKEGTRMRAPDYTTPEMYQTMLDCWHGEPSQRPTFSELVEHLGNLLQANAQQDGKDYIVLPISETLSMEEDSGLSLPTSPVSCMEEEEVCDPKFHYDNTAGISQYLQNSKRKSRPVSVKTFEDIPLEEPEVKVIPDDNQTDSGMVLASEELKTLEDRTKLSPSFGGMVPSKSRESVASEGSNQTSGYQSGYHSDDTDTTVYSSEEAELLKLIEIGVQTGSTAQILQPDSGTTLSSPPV
Sequence of Phospholipase A2 (P04054 whole entry): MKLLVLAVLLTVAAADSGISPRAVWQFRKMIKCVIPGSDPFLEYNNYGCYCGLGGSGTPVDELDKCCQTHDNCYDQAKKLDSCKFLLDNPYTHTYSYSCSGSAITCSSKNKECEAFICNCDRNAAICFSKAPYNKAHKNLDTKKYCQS
T6 sequence (Q9UBE0 whole entry): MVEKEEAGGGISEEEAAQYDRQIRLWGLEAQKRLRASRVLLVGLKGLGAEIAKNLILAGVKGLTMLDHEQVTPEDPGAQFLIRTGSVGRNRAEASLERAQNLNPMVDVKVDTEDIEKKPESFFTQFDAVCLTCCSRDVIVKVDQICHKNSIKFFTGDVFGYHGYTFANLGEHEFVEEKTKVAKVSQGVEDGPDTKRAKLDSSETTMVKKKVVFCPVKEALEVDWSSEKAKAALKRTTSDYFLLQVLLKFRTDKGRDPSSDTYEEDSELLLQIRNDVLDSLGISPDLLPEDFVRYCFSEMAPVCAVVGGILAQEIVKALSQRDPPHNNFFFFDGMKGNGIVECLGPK
T6 sequence (Q9UBT2 whole entry): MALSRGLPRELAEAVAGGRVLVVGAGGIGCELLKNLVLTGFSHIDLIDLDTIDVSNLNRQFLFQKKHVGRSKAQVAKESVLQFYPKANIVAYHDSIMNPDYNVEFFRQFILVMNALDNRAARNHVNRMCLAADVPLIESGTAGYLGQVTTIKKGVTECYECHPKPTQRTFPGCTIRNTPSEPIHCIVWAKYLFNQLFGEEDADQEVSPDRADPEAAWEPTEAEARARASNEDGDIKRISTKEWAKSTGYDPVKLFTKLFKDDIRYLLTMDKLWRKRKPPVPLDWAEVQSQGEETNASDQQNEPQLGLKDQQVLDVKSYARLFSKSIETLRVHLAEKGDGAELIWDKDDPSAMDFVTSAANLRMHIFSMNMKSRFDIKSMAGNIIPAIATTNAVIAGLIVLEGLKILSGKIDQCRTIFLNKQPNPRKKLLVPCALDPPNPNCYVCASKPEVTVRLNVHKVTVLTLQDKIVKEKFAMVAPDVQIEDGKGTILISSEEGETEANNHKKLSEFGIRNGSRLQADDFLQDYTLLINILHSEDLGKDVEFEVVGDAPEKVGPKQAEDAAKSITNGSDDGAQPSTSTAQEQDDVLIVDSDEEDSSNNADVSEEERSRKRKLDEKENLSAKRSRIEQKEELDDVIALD
Sequence of Cytochrome P450 2C9 (P11712 whole entry): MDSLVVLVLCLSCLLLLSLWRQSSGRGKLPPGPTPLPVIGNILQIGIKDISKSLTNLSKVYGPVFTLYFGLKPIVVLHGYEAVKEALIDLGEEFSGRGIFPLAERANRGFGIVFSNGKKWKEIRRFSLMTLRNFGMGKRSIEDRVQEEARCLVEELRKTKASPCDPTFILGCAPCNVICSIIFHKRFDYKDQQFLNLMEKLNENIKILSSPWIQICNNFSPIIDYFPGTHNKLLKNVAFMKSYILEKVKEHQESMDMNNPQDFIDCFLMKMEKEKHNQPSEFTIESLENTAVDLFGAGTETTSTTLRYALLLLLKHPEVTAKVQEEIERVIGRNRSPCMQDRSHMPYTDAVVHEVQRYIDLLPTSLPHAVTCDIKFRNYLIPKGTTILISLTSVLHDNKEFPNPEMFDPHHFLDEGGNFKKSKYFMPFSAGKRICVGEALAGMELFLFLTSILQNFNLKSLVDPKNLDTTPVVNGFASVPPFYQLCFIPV
Sequence of Cytochrome P450 2C19 (P33261 whole entry): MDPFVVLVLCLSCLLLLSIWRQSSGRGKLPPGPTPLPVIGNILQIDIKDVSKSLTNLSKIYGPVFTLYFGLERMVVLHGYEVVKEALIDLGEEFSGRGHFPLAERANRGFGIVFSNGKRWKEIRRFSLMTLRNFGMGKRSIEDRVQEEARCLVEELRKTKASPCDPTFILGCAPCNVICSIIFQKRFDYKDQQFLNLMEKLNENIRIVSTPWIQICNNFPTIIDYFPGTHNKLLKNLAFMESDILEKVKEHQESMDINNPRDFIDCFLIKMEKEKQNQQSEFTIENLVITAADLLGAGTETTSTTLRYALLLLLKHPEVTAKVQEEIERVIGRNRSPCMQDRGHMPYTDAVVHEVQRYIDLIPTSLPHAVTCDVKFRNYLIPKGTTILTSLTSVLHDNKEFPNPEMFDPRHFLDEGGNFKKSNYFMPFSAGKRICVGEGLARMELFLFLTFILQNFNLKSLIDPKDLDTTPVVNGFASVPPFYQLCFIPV

SMILES: Nn1c(CSc2nc3ccccc3o2)nnc1CSc1nc2ccccc2o1
- IC50 [1]: > 80 µM (inactive)

- Ki (Aurora kinase B): 0.251 µM (active)
- Ki (Aurora kinase A): 0.0501 µM (active)
SMILES: COc1ccc(-c2cc(-c3ccccc3)c3cc(Cl)ccc3n2)cc1

- Ki (Aurora kinase B): 0.0251 µM (active)
- Ki [2]: > 5.01 µM (inactive)
- Ki (Aurora kinase A): 0.631 µM (active)
SMILES: NC(=NO)c1ccccc1S(=O)(=O)Nc1ccc2c(c1)C(=NO)c1ccccc1-2

- Ki (Aurora kinase B): 0.0501 µM (active)
- Ki [2]: > 5.01 µM (inactive)
- Ki (Aurora kinase A): 0.794 µM (active)
SMILES: CCCCN1CCN(c2ccc(-c3nc4c(C(N)=O)cccc4[nH]3)cc2)CC1

- AC50 [3]: 3.12 µM (active)
- IC50 (Leucine aminopeptidase): 10.4 µM (active)
SMILES: COc1ccc(N2Nc3[nH]nc(N)c3N2)cc1

- IC50 (Phospholipase A2): 33.5 µM (inactive)
- IC50 (Cysteine protease ATG4B): 8.08 µM (active)
SMILES: Oc1c(Br)cc(Br)cc1/C=N/n1c(S)nnc1-c1ccccc1

- IC50 [4]: 14.5 µM (active)
SMILES: COc1ccc2ncc(S(=O)(=O)c3ccccc3)c(N3CCC4(CC3)OCCO4)c2c1

SMILES: C[C@@H]1CN([C@H](C)CO)C(=O)c2cccc(NC(=O)Nc3ccc(C(F)(F)F)cc3)c2O[C@@H]1CN(C)C(=O)NC1CCCCC1
- AC50 [5]: 5.14 µM (active)

- AC50 [3]: 10.5 µM (active)
SMILES: C[N+](C)(CCOc1ccccc1)Cc1ccccc1

- IC50 [1]: > 80 µM (inactive)
SMILES: O=C(Nc1nnc(C2CC2)s1)c1ccc(Cl)nc1

SMILES: C[C@H]1CN([C@@H](C)CO)C(=O)c2cccc(NC(=O)c3ccncc3)c2O[C@@H]1CN(C)Cc1ccc2c(c1)OCO2
- AC50 [5]: 0.277 µM (active)

- IC50 [1]: > 80 µM (inactive)
SMILES: NC(=O)N/N=C/c1ccc(-n2nncc2-c2ccc(Cl)cc2)cc1

SMILES: CC(=O)c1ccc2c(c1)Cc1cc(C(C)=O)ccc1-2
- AC50 (HeLa): 96.8 µM (active)

SMILES: c1cc(-c2cc3cc4c(cc3cn2)OCO4)cs1
- AC50 (HeLa): 141 µM (active)

SMILES: Cc1ccc(S(=O)(=O)Nc2ccc3c(c2)CC(=O)N([C@H](C)CO)C[C@@H](C)[C@H](CN(C)Cc2ccc4c(c2)OCO4)O3)cc1
- AC50 [5]: 4.35 µM (active)

- IC50 (Phospholipase A2): 4.38 µM (active)
- IC50 (Cysteine protease ATG4B): 5.74 µM (active)
SMILES: CCCCCC(=O)Nc1ccccc1N1CCN(c2ccccc2)CC1

SMILES: CC(=O)c1ccc(N2CCN(c3ccnc4cc(Cl)ccc34)CC2)cc1
- EC50 [6]: > 160 µM (inactive)
- EC50 [7]: 4.05 µM (active)
- AC50 (HEK293): 54.4 µM (active)

SMILES: CCC(=O)NC(c1cc(Cl)c2cccnc2c1O)C(C)C (stereo not given)
- AC50 (INS1): 1.86 µM (active)
- AC50 (HEK293): 6.68 µM (active)

SMILES: COc1ccc(-n2c(CNc3ccc(C)cc3)nnc2SCC(=O)Nc2nc(-c3ccccc3)cs2)cc1
- AC50 (INS1): 6.07 µM (active)
- EC50 [8]: 2.75 µM (active)
- IC50 [9]: 21.4 µM (active)
- IC50 (SUMO-activating enzyme [10]): 39.7 µM (active)
- EC50 [11]: 2.49 µM (active)
- AC50 (Cytochrome P450 2C9): 7.94 µM (inconclusive)
- IC50 (SUMO-activating enzyme [12]): 21.9 µM (active)
- AC50 (Cytochrome P450 2C19): 0.355 µM (inconclusive)

- IC50 [4]: 20.9 µM (active)
SMILES: O=C(C1CCCN(c2ncnc3c2nc2n3CCCCC2)C1)N1CCN(c2ccc(F)cc2)CC1 (stereo not given)

SMILES: CC(=O)c1ccc(N2CCN(C(=O)C3CCCN(c4ncnc5c4nc4n5CCCCC4)C3)CC2)cc1 (stereo not given)
- IC50 (H9c2): > 79 µM (inactive)
- IC50 [4]: 18.2 µM (active)

SMILES: CC(=O)c1ccc(NC(=O)Nc2ccc3c(c2)nc(C)n3C)cc1
- AC50 (HeLa): 42.9 µM (active)

SMILES: Cc1ccc(C(=O)Nc2ncc3c(Cl)cccc3n2)cc1
- AC50 (HEK293): 2.46 µM (active)

SMILES: C/C(Cn1nnc([N+](=O)[O-])n1)=N\NC(=O)c1cccc(Cl)c1
- EC50 [13]: 0.416 µM (active)
- EC50 [14]: > 60 µM (not active)
- IC50 [1]: > 80 µM (inactive)
